This passage reports IC50 and viability, T/C results from PubChem BioAssay AID1919009 (Molecular Pharmacology Branch, DTP, NCI, 2023).

The test deals with K24384-001-R-PDC complex spheroid growth. Description: Anticancer human tumor K24384-001-R-PDC patient-derived pancreatic adenocarcinoma cell line growth inhibition [AhR]. The conditions noted are these: for pIC50: curve of first compound; for viability, T/C: stronger effect = lower value. In a few lines:
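Spheroids combined tumor cells with HUVEC endothelial cells and human MSCs as stroma. AhR antagonists were paired with standard or investigational drugs, each dosed in half-log steps down from near clinical Cmax, or from 10 microM where Cmax was unknown.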

Setting [1] is: second compound 0.1 µM, first compound 0.0316 µM.
Where [2] appears, read: second compound 0.1 µM, first compound 0.1 µM.
The mark [3] stands for this setting: second compound 0.1 µM, first compound 0.316 µM.
Setting [4] is: second compound 0.1 µM, first compound 1 µM.
Setting [5] is: second compound 0.316 µM, first compound 0.0316 µM.
[6] abbreviates: second compound 0.316 µM, first compound 0.1 µM.
The mark [7] stands for this setting: second compound 0.316 µM, first compound 0.316 µM.
[8] abbreviates: second compound 0.316 µM, first compound 1 µM.
[9] abbreviates: second compound 1 µM, first compound 0.0316 µM.
Where [10] appears, read: second compound 1 µM, first compound 0.1 µM.
Setting [11] is: second compound 1 µM, first compound 0.316 µM.
Setting [12] is: second compound 1 µM, first compound 1 µM.
The mark [13] stands for this setting: second compound 3.16 µM, first compound 0.0316 µM.
Where [14] appears, read: second compound 3.16 µM, first compound 0.1 µM.
The mark [15] stands for this setting: second compound 3.16 µM, first compound 0.316 µM.
The mark [16] stands for this setting: second compound 3.16 µM, first compound 1 µM.
Where [17] appears, read: second compound 10 µM, first compound 0.0316 µM.
[18] abbreviates: second compound 10 µM, first compound 0.1 µM.
Where [19] appears, read: second compound 10 µM, first compound 0.316 µM.
Where [20] appears, read: second compound 10 µM, first compound 1 µM.

pIC50: −log10 of the molar value.

The term pIC50 denotes −log10 of the IC50, conventionally taken in molar units. In general, viability, T/C refers to the result in the treated group divided by that in the control group, in per cent. By IC50 is commonly meant the concentration needed to halve the response being measured.
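Throughout, for viability, T/C: percent of DMSO vehicle-treated spheroid viability set as 100%.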

For `Nc1ncn(C2CC(O)C(CO)O2)c(=O)n1` (configuration not stated) + Cc1ccccc1N=Nc1ccc(NC(=O)c2ccnn2C)c(C)c1, the pIC50 is, setting by setting: (second compound 0.1 µM) less than 6.00; (second compound 0.316 µM) less than 6.00; (second compound 1 µM) less than 6.00; (second compound 3.16 µM) less than 6.00; (second compound 10 µM) less than 6.00. Further, the viability, T/C is 108% (second compound 0.1 µM, first compound 0.00316 µM); 114% (second compound 0.1 µM, first compound 0.01 µM); 90.2% under setting [1]; 79.4% under setting [2]; 87.5% under setting [3]; 68.8% under setting [4]. In addition, the viability, T/C runs as follows: (second compound 0.316 µM, first compound 0.00316 µM) 102%; (second compound 0.316 µM, first compound 0.01 µM) 112%; under setting [5], 100%; under setting [6], 103%; under setting [7], 80.6%; under setting [8], 71.4%. Besides, the viability, T/C reads like this: (second compound 1 µM, first compound 0.00316 µM) 103%; (second compound 1 µM, first compound 0.01 µM) 99.2%; under setting [9], 90%; under setting [10], 89.5%; under setting [11], 73.2%; under setting [12], 66.9%. Also, the viability, T/C (second compound 3.16 µM, first compound 0.00316 µM) is 89.4%; the viability, T/C (second compound 3.16 µM, first compound 0.01 µM) was 85.7%; the viability, T/C under setting [13] was 83.5%; the viability, T/C under setting [14] was 68.9%; the viability, T/C under setting [15] is 64.9%; the viability, T/C under setting [16] was 57.5%. The viability, T/C was 93.6% (second compound 10 µM, first compound 0.00316 µM); 95.1% (second compound 10 µM, first compound 0.01 µM); 97.7% under setting [17]; 79% under setting [18]; 66.7% under setting [19]; 58.1% under setting [20].
Turning to `Cc1cncc(-c2nc(NCCc3c[nH]c4ccccc34)c3ncn(C(C)C)c3n2)c1`, the viability, T/C (compound 10 µM) was 10.4% [middle of 20 runs]. Besides, the IC50 (compound alone, run of 06/06/2022) was 5.54 µM [middle of 23 runs].
As to `COc1ccc([C@@H](O)c2cc(-c3ncnc4cc(N5CCOCC5)ccc34)c(F)cc2Cl)nn1` + CC(CO)NC(=O)c1cc(-c2ccc(Cl)cc2)nn(-c2cnn(C)c2)c1=O, the pIC50 (second compound 0.1 µM) is 5.14; the pIC50 (second compound 0.316 µM) was 5.41; the pIC50 (second compound 1 µM) was 5.55; the pIC50 (second compound 3.16 µM) is 5.53; the pIC50 (second compound 10 µM) is 5.83. Further, the viability, T/C is, setting by setting: under setting [1], 90.1%; under setting [2], 82.7%; under setting [3], 97.6%; under setting [4], 75.7%; (second compound 0.1 µM, first compound 3.16 µM) 69.2%; (second compound 0.1 µM, first compound 10 µM) 43%. Also, the viability, T/C is 103% under setting [5]; 99.5% under setting [6]; 85.2% under setting [7]; 67.6% under setting [8]; 55.1% (second compound 0.316 µM, first compound 3.16 µM); 37% (second compound 0.316 µM, first compound 10 µM). Further, the viability, T/C under setting [9] was 86.6%; the viability, T/C under setting [10] is 90%; the viability, T/C under setting [11] was 81.1%; the viability, T/C under setting [12] is 66.3%; the viability, T/C (second compound 1 µM, first compound 3.16 µM) was 49%; the viability, T/C (second compound 1 µM, first compound 10 µM) is 35.8%. Further, the viability, T/C is, setting by setting: under setting [13], 74.5%; under setting [14], 69.7%; under setting [15], 80.4%; under setting [16], 66%; (second compound 3.16 µM, first compound 3.16 µM) 49.2%; (second compound 3.16 µM, first compound 10 µM) 33.8%. Besides, the viability, T/C runs as follows: under setting [17], 71.3%; under setting [18], 75.2%; under setting [19], 68.2%; under setting [20], 52.1%; (second compound 10 µM, first compound 3.16 µM) 42.5%; (second compound 10 µM, first compound 10 µM) 28.9%.
